Experimental data published in US8030498B2, “Benzoylpyrazole compounds and herbicides containing them” (Ishihara Sangyo Kaisha, Ltd., priority 2005, dated 2011).

How the values were obtained:
[1] = system: barnyardgrass (Echinochloa crus-galli L.); test: Test Example 1: foliar treatment, growth inhibition rate, barnyardgrass; format: in vivo; settings: 31 g/ha active ingredient, visually observed 17th to 23rd day after application
In short: (§1)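 Potted upland soil; compounds as wettable powders or emulsifiable concentrates diluted in water at 500 L/ha plus 0.1 vol % spreader, foliar-sprayed at defined leaf stages (rice 1.0–2.5, wheat 1.7–3.4, corn 2.0–3.5, greenfoxtail 1.0–3.0). Growth inhibition (0–100%) scored visually 17–23 days after application.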

[2] = system: crabgrass (Digitaria sanguinalis L.); test: Test Example 1: foliar treatment, growth inhibition rate, crabgrass; format: in vivo; settings: 31 g/ha active ingredient, visually observed 17th to 23rd day after application
In short: (§2)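 Visual scoring of growth inhibition, 0% (untreated) to 100% (complete kill), on days 17–23 following post-emergence spray of formulated compound in water (500 L/ha, 0.1 vol % spreader); plants treated at set leaf stages, e.g. corn 2.0–3.5, wheat 1.7–3.4.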

[3] = system: greenfoxtail (Setaria viridis L.); test: Test Example 1: foliar treatment, growth inhibition rate, greenfoxtail; format: in vivo; settings: 31 g/ha active ingredient, visually observed 17th to 23rd day after application
In short: (§3)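 Visual growth inhibition rating, 0% (as untreated) to 100% (complete kill), taken 17–23 d after foliar spray. Compound was formulated as wettable powder or EC, diluted to 500 L/ha water with 0.1 vol % agricultural spreader, and applied to pot-grown seedlings of corn (2.0–3.5 leaf), greenfoxtail (1.0–3.0), rice (1.0–2.5) and wheat (1.7–3.4).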

[4] = system: redroot pigweed (Amaranthus retroflexus L.); test: Test Example 1: foliar treatment, growth inhibition rate, redroot pigweed; format: in vivo; settings: 31 g/ha active ingredient, visually observed 17th to 23rd day after application
In short: as §2

[5] = system: prickly sida (Sida spinosa L.); test: Test Example 1: foliar treatment, growth inhibition rate, prickly sida; format: in vivo; settings: 31 g/ha active ingredient, visually observed 17th to 23rd day after application
In short: as §2

[6] = system: velvetleaf (Abutilon theophrasti MEDIC.); test: Test Example 1: foliar treatment, growth inhibition rate, velvetleaf; format: in vivo; settings: 31 g/ha active ingredient, visually observed 17th to 23rd day after application
In short: as §1

rice (Oryza sativa L.) = test: Test Example 1: foliar treatment, growth inhibition rate, rice; format: in vivo; settings: 31 g/ha active ingredient, visually observed 17th to 23rd day after application
In short: as §3

wheat (Triticum spp.) = test: Test Example 1: foliar treatment, growth inhibition rate, wheat; format: in vivo; settings: 31 g/ha active ingredient, visually observed 17th to 23rd day after application
In short: as §3

corn (Zea mays L.) = test: Test Example 1: foliar treatment, growth inhibition rate, corn; format: in vivo; settings: 31 g/ha active ingredient, visually observed 17th to 23rd day after application
In short: as §3

[7] = system: soybean (Glycine max Merr.); test: Test Example 1: foliar treatment, growth inhibition rate, soybean; format: in vivo; settings: 31 g/ha active ingredient, visually observed 17th to 23rd day after application
In short: as §2

barnyardgrass = test: Test Example 2: soil application on the day after sowing, growth inhibition rate, barnyardgrass; format: in vivo, Echinochloa crus-galli L.; settings: 250 g/ha active ingredient, observed on 19th to 24th day
In short: (§4)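 Upland soil pots sown with crop and weed seeds; next day wettable powder or emulsifiable concentrate at prescribed active-ingredient amounts, diluted to 500 L/ha water, sprayed onto soil. Growth inhibition scored visually 19–24 days later, 0 (as untreated) to 100% (complete kill).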

crabgrass = test: Test Example 2: soil application on the day after sowing, growth inhibition rate, crabgrass; format: in vivo, Digitaria sanguinalis L.; settings: 250 g/ha active ingredient, observed on 19th to 24th day
In short: as §4

greenfoxtail = test: Test Example 2: soil application on the day after sowing, growth inhibition rate, greenfoxtail; format: in vivo, Setaria viridis L.; settings: 250 g/ha active ingredient, observed on 19th to 24th day
In short: as §4

redroot pigweed = test: Test Example 2: soil application on the day after sowing, growth inhibition rate, redroot pigweed; format: in vivo, Amaranthus retroflexus L.; settings: 250 g/ha active ingredient, observed on 19th to 24th day
In short: as §4

prickly sida = test: Test Example 2: soil application on the day after sowing, growth inhibition rate, prickly sida; format: in vivo, Sida spinosa L.; settings: 250 g/ha active ingredient, observed on 19th to 24th day
In short: as §4

velvetleaf = test: Test Example 2: soil application on the day after sowing, growth inhibition rate, velvetleaf; format: in vivo, Abutilon theophrasti MEDIC.; settings: 250 g/ha active ingredient, observed on 19th to 24th day
In short: as §4

rice = test: Test Example 2: soil application on the day after sowing, growth inhibition rate, rice; format: in vivo, Oryza sativa L.; settings: 250 g/ha active ingredient, observed on 19th to 24th day
In short: as §4

wheat = test: Test Example 2: soil application on the day after sowing, growth inhibition rate, wheat; format: in vivo, Triticum spp.; settings: 250 g/ha active ingredient, observed on 19th to 24th day
In short: as §4

corn = test: Test Example 2: soil application on the day after sowing, growth inhibition rate, corn; format: in vivo, Zea mays L.; settings: 250 g/ha active ingredient, observed on 19th to 24th day
In short: as §4

soybean = test: Test Example 2: soil application on the day after sowing, growth inhibition rate, soybean; format: in vivo, Glycine max Merr.; settings: 250 g/ha active ingredient, observed on 19th to 24th day
In short: as §4

CCC(C)SC(=O)Oc1c(C(=O)c2ccc(S(C)(=O)=O)c(C(=O)OC)c2C)cnn1C (centres unmarked) [compound 88]
Growth inhibition rate (%) Barnyardgrass [1]: 98% | Growth inhibition rate (%) Crabgrass [2]: 95% | Growth inhibition rate (%) Greenfoxtail [3]: 100% | Growth inhibition rate (%) redroot pigweed [4]: 95% | Growth inhibition rate (%) Prickly sida [5]: 90% | Growth inhibition rate (%) Velvetleaf [6]: 95% | Growth inhibition rate (%) Rice (rice (Oryza sativa L.)): 95% | Growth inhibition rate (%) Wheat (wheat (Triticum spp.)): 10% | Growth inhibition rate (%) Corn (corn (Zea mays L.)): 20% | Growth inhibition rate (%) Soybean [7]: 95% | Growth inhibition rate (%) Barnyardgrass (barnyardgrass): 100% | Growth inhibition rate (%) Crabgrass (crabgrass): 100% | Growth inhibition rate (%) Greenfoxtail (greenfoxtail): 98% | Growth inhibition rate (%) redroot pigweed (redroot pigweed): 100% | Growth inhibition rate (%) Prickly sida (prickly sida): 95% | Growth inhibition rate (%) Velvetleaf (velvetleaf): 100% | Growth inhibition rate (%) Rice (rice): 95% | Growth inhibition rate (%) Wheat (wheat): 0% | Growth inhibition rate (%) Corn (corn): 0% | Growth inhibition rate (%) Soybean (soybean): 0%
